Results taken from patent publication US7704995B2 (Exelixis, Inc., priority 2003, dated 2010).

Biological target: T1, Chk1 (Homo sapiens, UniProt O14757)
T1 construct: purchased Upstate Biotechnology
T1 sequence (O14757 1-476): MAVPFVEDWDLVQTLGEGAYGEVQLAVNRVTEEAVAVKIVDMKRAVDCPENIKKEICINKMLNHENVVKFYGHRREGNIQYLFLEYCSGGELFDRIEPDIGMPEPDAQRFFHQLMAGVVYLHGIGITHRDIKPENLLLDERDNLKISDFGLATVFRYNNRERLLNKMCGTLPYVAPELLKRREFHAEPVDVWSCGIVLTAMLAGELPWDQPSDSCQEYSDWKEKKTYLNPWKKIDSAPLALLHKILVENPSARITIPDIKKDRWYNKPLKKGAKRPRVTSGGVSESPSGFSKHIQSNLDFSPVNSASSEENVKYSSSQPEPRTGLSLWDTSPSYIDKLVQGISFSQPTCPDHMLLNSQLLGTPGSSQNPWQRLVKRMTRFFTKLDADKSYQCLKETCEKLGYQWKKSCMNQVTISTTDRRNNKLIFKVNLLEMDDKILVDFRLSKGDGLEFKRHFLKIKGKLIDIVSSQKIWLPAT
Test: Chk1 kinase assay: incorporation of γ-33P ATP into immobilized myelin basic protein
Type: biochemical
Conditions: Table 11; Chk1 only; read-out: Chk1 IC50
Method in brief: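 Read-out is scintillation counting of 33P incorporated into plate-bound myelin basic protein. Chk1 runs at 10 nM enzyme with 10 μM ATP, Chk2 at 20 nM with 30 μM ATP, each for 1 hour at room temperature. Duplicate points; IC50 taken as 50% activity reduction, Ki computed from IC50.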

Question: `CC(C)(C)OC(=O)N1CCN(C(=O)c2nc(-c3cccc(C(=O)NCc4ccccc4)c3)cnc2N)CC1` [Example 592, 1,1-dimethylethyl 4-{[3-amino-6-(3-{[(phenylmethyl)amino]carbonyl}phenyl)pyrazin-2-yl]carbonyl}piperazine-1-carboxylate] was tested. Which IC50 did it give?
Answer: Its IC50 is ≥ 10 µM.

Question: For `Nc1ncc(-c2cccc(C(=O)NCc3ccccc3)c2)nc1C(=O)N1CCNCC1` [Example 593, 3-[5-amino-6-(piperazin-1-ylcarbonyl)pyrazin-2-yl]-N-(phenylmethyl)benzamide], which IC50 is on record?
Answer: Its IC50 is ≥ 10 µM.

Question: Which IC50 does the source give for `Nc1ncc(-c2cccc(C(=O)NCc3ccccc3)c2)nc1C(=O)N[C@@H](CCC(=O)O)C(=O)O` [Example 594, N-{[3-amino-6-(3-{[(phenylmethyl)amino]carbonyl}phenyl)pyrazin-2-yl]carbonyl}glutamic acid] here?
Answer: Its IC50 is 1 to 10 µM.

Question: How did the IC50 turn out when `COCc1nnc(-c2nc(-c3cccc(CN[C@H]4CCc5ccccc54)c3)cnc2N)[nH]1` [Example 595, 5-(3-{[(1S)-2,3-dihydro-1H-inden-1-ylamino]methyl}phenyl)-3-{5-[(methyloxy)methyl]-4H-1,2,4-triazol-3-yl}pyrazin-2-amine] was run?
Answer: The IC50 was 1 to 10 µM.

Question: Which IC50 does the source give for `Nc1ncc(-c2cccc(CN[C@H]3CCc4ccccc43)c2)nc1-c1nc(-c2cccnc2)n[nH]1` [Example 596, 5-(3-{[(1S)-2,3-dihydro-1H-inden-1-ylamino]methyl}phenyl)-3-(3-pyridin-3-yl-1H-1,2,4-triazol-5-yl)pyrazin-2-amine] here?
Answer: The IC50 was < 0.05 µM.

Question: For `CNCCCNC(=O)c1nc(-c2cccc(CN[C@H]3CCc4ccccc43)c2)cnc1N` [Example 597, 3-amino-6-(3-{[(1S)-2,3-dihydro-1H-inden-1-ylamino]methyl}phenyl)-N-[3-(methylamino)propyl]pyrazine-2-carboxamide], which IC50 is on record?
Answer: The IC50 was < 0.05 µM.

Question: How did the IC50 turn out when `Nc1ncc(-c2cccc(CN[C@H]3CCc4ccccc43)c2)nc1C(=O)NCCCN1CCCC1` [Example 598, 3-amino-6-(3-{[(1S)-2,3-dihydro-1H-inden-1-ylamino]methyl}phenyl)-N-(3-pyrrolidin-1-ylpropyl)pyrazine-2-carboxamide] was run?
Answer: The IC50 was 1 to 10 µM.

Question: `COc1ccc(N/N=C(\C)c2nc(-c3cccc(C(=O)NCc4ccccc4)c3)cnc2N)cc1` [Example 599, 3-(5-amino-6-{(1E)-N-[4-(methyloxy)phenyl]ethanehydrazonoyl}pyrazin-2-yl)-N-(phenylmethyl)benzamide] was tested. Which IC50 did it give?
Answer: Its IC50 is 1 to 10 µM.

Question: `C/C(=N\Nc1ccc(C(C)C)cc1)c1nc(-c2cccc(C(=O)NCc3ccccc3)c2)cnc1N` [Example 600, 3-(5-amino-6-{(1E)-N-[4-(1-methylethyl)phenyl]ethanehydrazonoyl}pyrazin-2-yl)-N-(phenylmethyl)benzamide] was tested. Which IC50 did it give?
Answer: Its IC50 is 1 to 10 µM.

Question: `C/C(=N\Nc1nc2ccccc2s1)c1nc(-c2cccc(C(=O)NCc3ccccc3)c2)cnc1N` [Example 601, 3-{5-amino-6-[(1E)-N-1,3-benzothiazol-2-ylethanehydrazonoyl]pyrazin-2-yl}-N-(phenylmethyl)benzamide] was tested. Which IC50 did it give?
Answer: The IC50 was ≥ 10 µM.

Question: How did the IC50 turn out when `C/C(=N\Nc1ccc(C)cc1)c1nc(-c2cccc(C(=O)NCc3ccccc3)c2)cnc1N` [Example 602, 3-{5-amino-6-[(1E)-N-(4-methylphenyl)ethanehydrazonoyl]pyrazin-2-yl}-N-(phenylmethyl)benzamide] was run?
Answer: The IC50 was ≥ 10 µM.

Question: Which IC50 does the source give for `C/C(=N\Nc1ccc(Cl)cc1)c1nc(-c2cccc(C(=O)NCc3ccccc3)c2)cnc1N` [Example 603, 3-{5-amino-6-[(1E)-N-(4-chlorophenyl)ethanehydrazonoyl]pyrazin-2-yl}-N-(phenylmethyl)benzamide] here?
Answer: The IC50 was ≥ 10 µM.

Question: For `C/C(=N\N(C)c1ccccc1)c1nc(-c2cccc(C(=O)NCc3ccccc3)c2)cnc1N` [Example 604, 3-{5-amino-6-[(1E)-N-methyl-N-phenylethanehydrazonoyl]pyrazin-2-yl}-N-(phenylmethyl)benzamide], which IC50 is on record?
Answer: Its IC50 is 1 to 10 µM.

Question: How did the IC50 turn out when `C/C(=N\NCCO)c1nc(-c2cccc(C(=O)NCc3ccccc3)c2)cnc1N` [Example 605, 3-{5-amino-6-[(1E)-N-(2-hydroxyethyl)ethanehydrazonoyl]pyrazin-2-yl}-N-(phenylmethyl)benzamide] was run?
Answer: The IC50 was 0.05 to 1 µM.

Question: With `Nc1ncc(-c2cccc(CO)c2)nc1-c1nc(-c2ccncc2)n[nH]1` [Example 606, {3-[5-amino-6-(3-pyridin-4-yl-1H-1,2,4-triazol-5-yl)pyrazin-2-yl]phenyl}methanol] as the molecule, how does the IC50 read?
Answer: The IC50 was < 0.05 µM.

Question: For `Nc1ncc(-c2cccc(CO)c2)nc1-c1nc(C2CCNCC2)n[nH]1` [Example 607, {3-[5-amino-6-(3-piperidin-4-yl-1H-1,2,4-triazol-5-yl)pyrazin-2-yl]phenyl}methanol], which IC50 is on record?
Answer: Its IC50 is 1 to 10 µM.

Question: How did the IC50 turn out when `Nc1nccc(-c2nc(-c3cccc(C(=O)NCc4ccccc4)c3)cnc2N)n1` [Example 608, 3-[5-amino-6-(2-aminopyrimidin-4-yl)pyrazin-2-yl]-N-(phenylmethyl)benzamide] was run?
Answer: The IC50 was 1 to 10 µM.

Question: How did the IC50 turn out when `CN(C)c1nccc(-c2nc(-c3cccc(C(=O)NCc4ccccc4)c3)cnc2N)n1` [Example 609, 3-{5-amino-6-[2-(dimethylamino)pyrimidin-4-yl]pyrazin-2-yl}-N-(phenylmethyl)benzamide] was run?
Answer: The IC50 was ≥ 10 µM.

Question: Which IC50 does the source give for `CCOC(=O)[C@H](Cc1ccc(O)cc1)NC(=O)c1nc(-c2cccc(C(=O)NCc3ccccc3)c2)cnc1N` [Example 610, ethyl N-{[3-amino-6-(3-{[(phenylmethyl)amino]carbonyl}phenyl)pyrazin-2-yl]carbonyl}-L-tyrosinate] here?
Answer: Its IC50 is ≥ 10 µM.

Question: With `Nc1ncc(-c2cccc(C(=O)NCc3ccccc3)c2)nc1C(=O)N[C@H](Cc1ccc(O)cc1)C(=O)O` [Example 611, N-{[3-amino-6-(3-{[(phenylmethyl)amino]carbonyl}phenyl)pyrazin-2-yl]carbonyl}-D-tyrosine] as the molecule, how does the IC50 read?
Answer: The IC50 was ≥ 10 µM.

Question: Which IC50 does the source give for `CC(C)(C)OC(=O)NCCCNC(=O)c1nc(-c2cccc(C(=O)NCc3ccccc3)c2)cnc1N` [Example 612, 1,1-dimethylethyl [3-({[3-amino-6-(3-{[(phenylmethyl)amino]carbonyl}phenyl)pyrazin-2-yl]carbonyl}amino)propyl]carbamate] here?
Answer: Its IC50 is ≥ 10 µM.

Question: Which IC50 does the source give for `NCCCNC(=O)c1nc(-c2cccc(C(=O)NCc3ccccc3)c2)cnc1N` [Example 613, 3-amino-N-(3-aminopropyl)-6-(3-{[(phenylmethyl)amino]carbonyl}phenyl)pyrazine-2-carboxamide] here?
Answer: Its IC50 is 0.05 to 1 µM.

Question: Which IC50 does the source give for `Nc1ncc(-c2cccc(C(=O)NCc3ccccc3)c2)nc1C(=O)N1CCCC(C(=O)O)C1` (centres unmarked) [Example 614, 1-{[3-amino-6-(3-{[(phenylmethyl)amino]carbonyl}phenyl)pyrazin-2-yl]carbonyl}piperidine-3-carboxylic] here?
Answer: The IC50 was ≥ 10 µM.

Question: `CC(C)(C)OC(=O)NCCNC(=O)c1nc(-c2cccc(C(=O)NCc3ccccc3)c2)cnc1N` [Example 615, 1,1-dimethylethyl [2-({[3-amino-6-(3-{[(phenylmethyl)amino]carbonyl}phenyl)pyrazin-2-yl]carbonyl}amino)ethyl]carbamate] was tested. Which IC50 did it give?
Answer: Its IC50 is ≥ 10 µM.

Question: Which IC50 does the source give for `NCCNC(=O)c1nc(-c2cccc(C(=O)NCc3ccccc3)c2)cnc1N` [Example 616, 3-amino-N-(2-aminoethyl)-6-(3-{[(phenylmethyl)amino]carbonyl}phenyl)pyrazine-2-carboxamide] here?
Answer: Its IC50 is 0.05 to 1 µM.

Question: Which IC50 does the source give for `CC(C)(C)OC(=O)NC1CCN(C(=O)c2nc(-c3cccc(C(=O)NCc4ccccc4)c3)cnc2N)CC1` [Example 617, 1,1-dimethylethyl (1-{[3-amino-6-(3-{[(phenylmethyl)amino]carbonyl}phenyl)pyrazin-2-yl]carbonyl}piperidin-4-yl)carbamate] here?
Answer: Its IC50 is ≥ 10 µM.
